Results on three molecules are retold here after patent US7326562B2, “Biological indicator system to detect effectiveness of sterilization” (priority 1999, dated 2008).

SMILES strings stand for the structures.

In assay [1] the test system is B. subtilis spores. The assay can be described thus: Ethylene oxide sterilization of biological indicator; viability by MALS, AODC and TSA plating. It is filed as cell-based, Bacillus subtilis. The method, then:
The ethylene oxide sterilizer used herein was operated at the Department of Veterans Affairs, Processing & Distribution Section, VAHMCS Baltimore Division (Baltimore, Md.). The sterilizing cycle was fixed to include a 2.5 hour exposure to ethylene oxide followed by a de-gassing cycle of 14.5 hours. A non-biological indicator was used to also monitor the sterilization. A surgicot 2 (Surgicot, Research Triangle Park, N.C.) laminated EO Gas Indicator (Propper Manufacturing Co., Long Island, N.Y.) which registers a change in color after correct processing has been accomplished was used for this purpose.
After completion of the EO sterilization cycle, the BI culture was diluted and the spores were suspended in 5% BHI, as described above. […] Following heat-shock, the sample was incubated at 37° C. for 24 hours to ensure that viable cells could be detected if present. […] Direct plating on TSA was also performed to further determine the presence of viable cells.

For assay [2], the system named is B. subtilis spores.
Procedure: The sterilization cycle requires about 70 minutes to complete. […] The STERRAD* employed a non-biological indicator comprising a Chemical Indicator strip supplied by the manufacturer which changed from red to yellow (or lighter) as compared to the color bar on the strip when exposed to H2O2 during the processing cycle. Also, a BI (B. subtilis spore strips) was incubated in a nutrient broth for 7 days to determine successful sterilization.
For all H2O2 sterilized cultures, the BI challenge was one ml of B. subtilis spores at a concentration of 1.7×10^8/ml which were air-dried onto a glass slide as described previously elsewhere herein. After completion of the STERRAD Cycle of approximately 70 minutes, the BI culture was diluted and the cells were suspended in 5% BHI, as described above. The culture was diluted to the same concentration as the control BI and the sample was heat-shocked at 70° C. for 10 minutes and incubated at 37° C. for 24 hours to detect any viable cells present. MALS measurements were obtained at 0 minutes, 30 minutes, 1 hour, 2 hours, 3 hours, 4 hours, and 4.75 hours, and parallel samples were obtained for analysis by AODC direct counting. Direct plating on TSA was also performed to determine the presence of viable cells. […]
Assay [3] concerns B. stearothermophilus spores. The assay can be described thus: Ozone treatment of B. stearothermophilus spores, MALS directly after treatment. Format: cell-based, Bacillus stearothermophilus. As to conditions: about 0.3 ppm ozone, 5 to 20 min, 0 hours post-treatment. An excerpt: (§1) Ozone model CD-1B (Aqua-Flo, Inc., Baltimore, Md.), equipped with voltage regulator and oxygen flow controls was used to generate an ozone doses of 0.3 to 0.35 ppm in water. Ozone was generated from oxygen, supplied from an oxygen tank with O2 purity of more than about 99.9%. The generator was fitted with a voltage regulator and an oxygen flow regulator which enabled the precise setting of oxygen flow and voltage parameters such that the desired concentration of O3 could be maintained continuously. An oxygen flow rate of 8 ft^3/hr, at 5 psi, and approximately 70 to 80 amps was used to generate the concentrations specified. Excess (head) ozone was passed through a platinum catalyst that converted it back to oxygen where it was released into a vented chemical safety hood.
By the use of toggle switches, the ozone was directed through glass spargers into either of two specifically designated 2-liter Erlenmeyer flasks containing one liter of distilled water. […] The ozone concentrations were measured using chemical oxidation of indigo dye using an Ozone Pocket Colorimeter™ per manufacturer's instructions (HACH, Inc., Loveland, Colo.). Bacillus spores, at a concentration of 2×10^6 spores/milliliter were exposed to ozone for treatment times of 0, 5, 10, 15, 20, and 30 minutes, after which times they were measured by MALS, AODC, and CFU, respectively. […]

The test system of assay [4] is B. subtilis (Difco) spores. The assay can be described thus: Acridine orange direct counts (AODC) of spores directly after ozone treatment. Format: cell-based, Bacillus subtilis. As to conditions: 0.3 ppm ozone. The method, then: One ml samples of the culture to be counted were placed into small conical vials and the cell culture was fixed by adding 30 μl of a 36.5-38.0% formalin solution. After fixing the culture with formalin for at least about 30 minutes, the sample was either refrigerated or the AO staining procedure was carried to completion. To stain, 100 μl of a 0.1% acridine orange solution were added to the 1.0 ml spore sample and the dye was allowed to react with the spores for approximately five to eight minutes. Polycarbonate membranes (Poretics®, Osmonics, Livermore Calif.) 25 mm in diameter, 0.2 μm porosity, and black in color were soaked in sterile, distilled water for about 5 to 10 minutes. The membranes were then placed on a millipore filter apparatus. One ml aliquots from control or treated samples which had been stained with AO were placed onto the filters and vacuum was applied. The samples were filtered until the fluid was removed. Then, the filter apparatus container from which the fluid had been removed was rinsed with distilled water to ensure that all cells or spores were impinged upon the filter surface. The filter was laid upon a clean microscope slide, a drop of mineral oil applied to the surface of the membrane, and a clean coverslip was laid onto the membrane.
The AODC slide was examined under a microscope using ultraviolet optics (Olympus VANOX-T equipped for light, phase-contrast, and UV-fluorescence microscopy) which microscope was also fitted with photographic and TV Monitoring equipment. A scaled grid in the eyepiece of the microscope permitted the direct counting of the bacterial spores, bacilli, or other bodies that are stained by the dye and which fluoresce under the UV optics. To determine the number of cells/spores in a sample, the number counted in the entire grid was multiplied by 3.3×10^4 and by any dilution factor of the sample.
(§2) By the use of toggle switches, the ozone was directed through glass spargers into either of two specifically designated 2-liter Erlenmeyer flasks containing one liter of distilled water. Either a solution of a test chemical or a suspension of microorganisms, or both, was introduced into the flasks via tubes at the top, which passed into the flasks through rubber stoppers that sealed off the system. Samples could be withdrawn at the bottom of the flasks by opening a stopcock. The ozone concentrations were measured using chemical oxidation of indigo dye using an Ozone Pocket Colorimeter™ per manufacturer's instructions (HACH, Inc., Loveland, Colo.). Bacillus spores, at a concentration of 2×10^6 spores/milliliter were exposed to ozone for treatment times of 0, 5, 10, 15, 20, and 30 minutes, after which times they were measured by MALS, AODC, and CFU, respectively.
(§3) Table 2 gives a direct comparison of MALS, AODC, and CFU data for ozone treatment of B. subtilis spores over at 5-minute intervals over a 30-min period. All MALS and AODC measurements were made on spores immediately after treatment, and in the absence of incubation. Spores were plated immediately onto Trypticase Soy Agar after treatment to verify the number of surviving spores (CFU).
(§4) Ozone treatment of microbes is representative of cold sterilization and disinfection.

Assay [5] deals with B. stearothermophilus. As to conditions: 8% humidified ozone sterilization; cited from earlier work.
In assay [6] the target is B. subtilis (Difco) spores. The assay is described as follows: Viable plate counts (CFU) on trypticase soy agar after ozone treatment. Format: cell-based, Bacillus subtilis. As to conditions: for kill of the spore population / viable spores after treatment / CFU % of AODC / CFU % of Control / CFU/ml: 0.3 ppm ozone; for viable spores after treatment: reduction from 2.1×10^6; for CFU/ml: CFU after 24 hours incubation. The method, then: Dried spores from the sample vials or glass slides were eluted into sterile distilled water, plated directly, serially diluted (up to 10^−6), and plated onto TSA. After 18 to 24 hours of incubation at 37° C. for B. subtilis and 55° C. for B. stearothermophilus), the viable colony forming units (CFU) were counted. Plates that had no colonies were incubated for several more days (up to 7 days) to ensure that there were no damaged, but viable spores. From each of the same samples, Trypticase Soy broth was inoculated and incubated for up to seven days to ensure that there were no surviving bacteria in the negative assays.
The spores were eluted from the biological indicator slides or scintillation vials into 20 ml of sterile distilled water and 0.1 ml of the sample was spread onto TSA plates.
as §2
(§5) Ozone treatment of microbes is representative of cold sterilization and disinfection. […] Bacillus subtilis spores, at an concentration of 2×10^6 spores/milliliter were exposed to ozone at treatment times of 0, 5, 10, 15, 20, and 30 minutes, at which times they were measured by MALS, AODC, and CFU, respectively. All measurements were made on spores immediately and without the need for incubation. […] These measurements could be correlated directly with the cumulative concentration of ozone with increasing time of exposure. […] For a kill of […] (reduction from 2.1×10^6 to 1.8×10^3 spores/ml) the CT is 0.3 ppm×15 min=4.5. For a kill of 99.995% (reduction from 2.1×10^6 to 10 spores/mL), it is 0.3 ppm×30 min=9.
as §3, §4

In assay [7] the test system is B. subtilis. As to conditions: 8% humidified ozone sterilization; cited from earlier work.
Assay [8] deals with B. subtilis (Difco) spores. The assay can be described thus: MALS (DAWN-F) measurement of spores directly after ozone treatment. Format: cell-based, Bacillus subtilis. As to conditions: 0.3 ppm ozone; for MALS Intensity: no incubation.
Source text: The MALS instrument used was the DAWN Model F (Wyatt Technology Corp., Santa Barbara, Calif.), which is a flow-through instrument permitting the liquid from a sample to pass through a flow cell while continuously making measurements on the particles as they pass through the cell. Otherwise, the instrument is virtually identical to the DAWN Model B previously described elsewhere herein.
as §1, §2, §5, §3, §4

For the molecule `C1CO1` [EO, ethylene oxide], the “bacterial growth of BI immersed in water” value in assay [1] (EO samples immersed within 10, 50, and 100 ml of water) is given as “all positive for bacterial growth”. Also, the “viable colonies on TSA plates” value in assay [1] (spores dried on glass slide, 2.5 hour EO exposure, heat-shocked, incubated in 5% BHI) was “no viable colonies”. In addition, the “AODC direct counts during incubation” value in assay [1] (spores dried on glass slide, EO cycle, 0 to 4 hours incubation) is listed as “no increase in direct counts”.
Take `OO` [H2O2, hydrogen peroxide]: the “MALS N/No value” in assay [2] (H2O2-sterilized BI after 3 hours of incubation vs control at 0 minutes) amounted to 1.0. Also, the “growth on TSA plates” value in assay [2] (STERRAD* cycle about 70 minutes, 10 plates on each of triplicate samples) was “no growth on any plate”.
Take `O=[O+][O-]` [ozone]: the “change in spore concentrations (MALS)” value in assay [3] was “decreases in spore concentrations with increasing exposure to ozone”. For the same molecule, the “AODC % of control” value is recorded as 68.3% in assay [4] (5 min treatment); 49.5% in assay [4] (10 min treatment); 55.1% in assay [4] (15 min treatment); 20.8% in assay [4] (20 min treatment); 21.5% in assay [4] (30 min treatment). In addition, the “AODC Spores per ml” value in assay [4] (5 min treatment) is listed as 1.6 × 10^6 spores per ml; in assay [4] (10 min treatment), 1.16 × 10^6 spores per ml; in assay [4] (15 min treatment) it was 1.29 × 10^6 spores per ml; in assay [4] (20 min treatment), 4.87 × 10^5 spores per ml; in assay [4] (30 min treatment) it was 5.03 × 10^5 spores per ml. The figures for the “D value (time required to reduce the number of spores by 1 log)” value in assay [5] and in assay [7] were 4.3 minutes and 5 minutes, respectively. For the same molecule, the “kill of the spore population” value in assay [6] (5 min) is reported as 41.4%; in assay [6] (15 min), 91%; in assay [6] (30 min), 99.995%. Also, the “viable spores after treatment” value in assay [6] (5 min) is on record as 1.23×10^6 spores/ml; in assay [6] (15 min) it was 1.8×10^3 spores/ml; in assay [6] (30 min), 10 spores/mL. Further, the “CFU % of AODC” value in assay [6] (5 min treatment) is listed as 76.9%; in assay [6] (10 min treatment), 14.5%; in assay [6] (15 min treatment), 0.14%; in assay [6] (20 min treatment) it was 0.04%; in assay [6] (30 min treatment), 0.04%. The “CFU % of Control” value in assay [6] (5 min treatment) is listed as 58.5%; in assay [6] (10 min treatment), 8.0%; in assay [6] (15 min treatment), 0.09%; in assay [6] (20 min treatment) it was 0.009%; in assay [6] (30 min treatment), 0.00005%. The CFU/ml in assay [6] (5 min treatment) is on record as 1.23 × 10^6 CFU/ml; in assay [6] (10 min treatment) it was 1.68 × 10^5 CFU/ml; in assay [6] (15 min treatment), 1.80 × 10^3 CFU/ml; in assay [6] (20 min treatment), 1.82 × 10^2 CFU/ml; in assay [6] (30 min treatment), 10 CFU/ml. In addition, the “CT (concentration x time) value” was determined as 1.5 in assay [6] (0.3 ppm×5 min), 4.5 in assay [6] (0.3 ppm×15 min) and 9 in assay [6] (0.3 ppm×30 min). In addition, the “MALS % of control” value amounted to 65.33% in assay [8] (5 min treatment); 51.89% in assay [8] (10 min treatment); 42.67% in assay [8] (15 min treatment); 34.94% in assay [8] (20 min treatment); 27.96% in assay [8] (30 min treatment). For the same molecule, the “MALS Intensity” value amounted to 1591.92 in assay [8] (5 min treatment, log weighted average of intensities at all detectors); 1264.26 in assay [8] (10 min treatment); 1039.64 in assay [8] (15 min treatment); 851.5 in assay [8] (20 min treatment); 681.2 in assay [8] (30 min treatment).
